Experimental data taken from publication PMC4854315, “Discovery of a novel allosteric inhibitor-binding site in ERK5: comparison with the canonical kinase hinge ATP-binding site” (Acta Crystallographica. Section D, Structural Biology, 2016).

How the values were obtained:
Experiment in all cases: Z'-LYTE kinase panel
Type in all cases: biochemical
[1] = molecular target: T1, TAOK2 (TAO1) (Homo sapiens, UniProt Q9UL54)
T1 construct: purchased ThermoFisher (SelectScreen, Z'-LYTE)
T1 sequence (Q9UL54 1-1235): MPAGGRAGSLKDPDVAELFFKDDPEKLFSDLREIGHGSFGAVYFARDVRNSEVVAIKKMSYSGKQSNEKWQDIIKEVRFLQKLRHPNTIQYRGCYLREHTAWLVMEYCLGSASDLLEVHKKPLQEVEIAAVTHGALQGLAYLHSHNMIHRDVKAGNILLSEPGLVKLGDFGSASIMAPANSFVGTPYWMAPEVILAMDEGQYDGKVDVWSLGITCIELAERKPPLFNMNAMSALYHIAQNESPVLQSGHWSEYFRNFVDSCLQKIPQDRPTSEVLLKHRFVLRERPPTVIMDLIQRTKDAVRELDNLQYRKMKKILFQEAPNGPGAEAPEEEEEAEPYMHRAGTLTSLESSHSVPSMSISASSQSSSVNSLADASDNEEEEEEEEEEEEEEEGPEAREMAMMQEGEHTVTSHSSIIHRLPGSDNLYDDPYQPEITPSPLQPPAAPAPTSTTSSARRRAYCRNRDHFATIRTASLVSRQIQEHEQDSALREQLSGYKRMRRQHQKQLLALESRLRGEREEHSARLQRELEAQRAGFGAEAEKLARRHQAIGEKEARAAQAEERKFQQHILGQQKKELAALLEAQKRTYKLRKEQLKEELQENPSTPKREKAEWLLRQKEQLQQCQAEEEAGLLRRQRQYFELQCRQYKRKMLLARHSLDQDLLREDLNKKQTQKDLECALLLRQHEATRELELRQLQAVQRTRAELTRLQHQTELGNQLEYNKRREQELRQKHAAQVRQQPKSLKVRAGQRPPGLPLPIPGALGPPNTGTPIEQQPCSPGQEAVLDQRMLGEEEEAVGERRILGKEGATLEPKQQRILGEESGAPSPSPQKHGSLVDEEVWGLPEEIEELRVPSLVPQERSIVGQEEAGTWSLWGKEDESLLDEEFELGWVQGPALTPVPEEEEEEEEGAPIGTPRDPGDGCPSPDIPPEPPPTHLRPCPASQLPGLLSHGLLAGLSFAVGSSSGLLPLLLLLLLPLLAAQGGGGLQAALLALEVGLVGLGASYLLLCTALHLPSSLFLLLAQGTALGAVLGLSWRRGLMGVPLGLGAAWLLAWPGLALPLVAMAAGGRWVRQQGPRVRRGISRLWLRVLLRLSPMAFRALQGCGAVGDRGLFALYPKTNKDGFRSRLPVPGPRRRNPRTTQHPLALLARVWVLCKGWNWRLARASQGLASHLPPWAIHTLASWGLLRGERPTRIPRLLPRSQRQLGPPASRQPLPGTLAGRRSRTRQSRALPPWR
Method: (§1) Compounds 2, 3 and 5 were tested for activity against the 225 kinases in the ThermoFisher standard kinase panel. The standard Z′-LYTE assay protocol (ThermoFisher) was used to measure the percentage inhibition at 10 µM compound concentration (details are provided in the supporting information).

[2] = molecular target: T2, CDK2/cyclin A (Homo sapiens, UniProt P24941)
T2 construct: purchased ThermoFisher (SelectScreen, Z'-LYTE)
Method: as §1

[3] = molecular target: T3, MAP2K1 (MEK1) (Homo sapiens, UniProt Q02750); conditions: 10 µM compound; ATP 100
T3 construct: purchased ThermoFisher (SelectScreen, Z'-LYTE)
Method: as §1

[4] = molecular target: T4, MELK (Homo sapiens, UniProt Q14680)
T4 construct: purchased ThermoFisher (SelectScreen, Z'-LYTE)
T4 sequence (Q14680 whole entry): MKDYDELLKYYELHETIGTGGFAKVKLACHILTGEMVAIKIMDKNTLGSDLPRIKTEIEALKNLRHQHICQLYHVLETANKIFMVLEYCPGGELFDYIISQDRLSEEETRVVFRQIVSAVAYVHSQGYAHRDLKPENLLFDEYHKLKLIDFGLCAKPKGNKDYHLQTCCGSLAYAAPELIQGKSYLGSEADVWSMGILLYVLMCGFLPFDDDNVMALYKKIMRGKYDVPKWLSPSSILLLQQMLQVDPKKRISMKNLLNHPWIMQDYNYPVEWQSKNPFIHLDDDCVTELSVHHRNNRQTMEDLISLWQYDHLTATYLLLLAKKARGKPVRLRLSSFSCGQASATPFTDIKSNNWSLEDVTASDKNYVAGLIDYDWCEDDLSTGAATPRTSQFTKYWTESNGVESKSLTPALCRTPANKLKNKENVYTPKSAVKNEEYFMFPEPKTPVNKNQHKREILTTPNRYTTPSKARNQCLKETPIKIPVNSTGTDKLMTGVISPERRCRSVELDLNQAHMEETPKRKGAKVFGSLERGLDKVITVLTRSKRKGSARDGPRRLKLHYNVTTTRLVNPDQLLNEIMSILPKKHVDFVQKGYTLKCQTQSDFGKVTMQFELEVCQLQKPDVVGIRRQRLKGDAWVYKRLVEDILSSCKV
Method: as §1

[5] = molecular target: T5, PTK2 (FAK) (Homo sapiens, UniProt Q05397)
T5 construct: purchased ThermoFisher (SelectScreen, Z'-LYTE)
T5 sequence (Q05397 whole entry): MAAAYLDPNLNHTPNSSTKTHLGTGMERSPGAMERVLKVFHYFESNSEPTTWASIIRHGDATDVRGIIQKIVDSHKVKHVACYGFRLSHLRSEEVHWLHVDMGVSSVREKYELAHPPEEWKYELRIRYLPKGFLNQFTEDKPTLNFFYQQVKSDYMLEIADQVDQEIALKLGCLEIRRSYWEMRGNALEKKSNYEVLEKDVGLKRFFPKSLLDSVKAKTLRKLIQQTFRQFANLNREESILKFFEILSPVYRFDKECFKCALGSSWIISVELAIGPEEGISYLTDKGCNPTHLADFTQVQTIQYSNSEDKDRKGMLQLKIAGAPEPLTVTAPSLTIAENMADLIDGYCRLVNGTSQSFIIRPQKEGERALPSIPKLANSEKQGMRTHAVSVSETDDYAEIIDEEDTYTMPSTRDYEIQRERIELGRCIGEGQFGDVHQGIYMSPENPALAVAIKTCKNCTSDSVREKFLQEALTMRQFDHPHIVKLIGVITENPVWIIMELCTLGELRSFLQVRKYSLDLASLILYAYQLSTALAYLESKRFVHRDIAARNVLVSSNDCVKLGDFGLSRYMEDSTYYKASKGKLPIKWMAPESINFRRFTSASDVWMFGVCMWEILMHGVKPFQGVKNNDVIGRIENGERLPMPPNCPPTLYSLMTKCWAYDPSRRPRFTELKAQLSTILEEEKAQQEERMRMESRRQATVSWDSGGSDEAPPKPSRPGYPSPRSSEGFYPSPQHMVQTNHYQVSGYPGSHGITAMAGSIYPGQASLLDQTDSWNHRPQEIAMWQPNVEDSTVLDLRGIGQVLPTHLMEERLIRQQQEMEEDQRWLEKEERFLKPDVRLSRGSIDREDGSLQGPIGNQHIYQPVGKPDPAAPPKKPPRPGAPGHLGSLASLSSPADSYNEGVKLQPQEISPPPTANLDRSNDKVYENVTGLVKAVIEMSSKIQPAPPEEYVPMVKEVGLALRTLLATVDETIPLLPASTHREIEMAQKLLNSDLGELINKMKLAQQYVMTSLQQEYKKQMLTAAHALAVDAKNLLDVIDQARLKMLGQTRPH
Method: as §1

[6] = molecular target: T6, FLT3 (Homo sapiens, UniProt P36888)
T6 construct: purchased ThermoFisher (SelectScreen, Z'-LYTE)
T6 sequence (P36888 27-993): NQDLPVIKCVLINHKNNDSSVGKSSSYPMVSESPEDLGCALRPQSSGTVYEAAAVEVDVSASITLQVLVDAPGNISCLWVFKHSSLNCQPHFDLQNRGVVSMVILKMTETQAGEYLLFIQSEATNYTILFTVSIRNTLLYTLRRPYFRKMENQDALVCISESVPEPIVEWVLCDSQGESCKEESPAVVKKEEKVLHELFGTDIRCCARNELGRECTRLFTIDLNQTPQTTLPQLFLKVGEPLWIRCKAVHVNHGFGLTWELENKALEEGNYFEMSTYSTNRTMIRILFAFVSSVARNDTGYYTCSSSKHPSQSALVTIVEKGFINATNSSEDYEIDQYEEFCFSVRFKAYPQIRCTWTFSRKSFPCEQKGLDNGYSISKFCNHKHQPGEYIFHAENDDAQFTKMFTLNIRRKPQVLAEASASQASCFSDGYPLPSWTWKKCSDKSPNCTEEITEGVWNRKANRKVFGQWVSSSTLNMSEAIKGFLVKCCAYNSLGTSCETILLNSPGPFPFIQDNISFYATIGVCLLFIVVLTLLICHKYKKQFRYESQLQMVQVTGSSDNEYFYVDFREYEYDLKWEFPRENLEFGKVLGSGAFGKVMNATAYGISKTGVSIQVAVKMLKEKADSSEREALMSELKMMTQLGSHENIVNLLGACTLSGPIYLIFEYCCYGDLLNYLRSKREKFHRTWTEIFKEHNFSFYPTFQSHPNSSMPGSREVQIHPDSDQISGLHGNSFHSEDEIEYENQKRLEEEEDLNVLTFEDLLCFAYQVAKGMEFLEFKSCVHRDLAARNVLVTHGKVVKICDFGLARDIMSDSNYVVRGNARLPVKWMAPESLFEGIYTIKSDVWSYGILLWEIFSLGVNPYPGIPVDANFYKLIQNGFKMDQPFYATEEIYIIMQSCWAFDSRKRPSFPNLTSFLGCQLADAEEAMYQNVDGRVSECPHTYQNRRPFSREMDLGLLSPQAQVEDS
Method: as §1

[7] = molecular target: T7, MAP3K9 (MLK1) (Homo sapiens, UniProt P80192)
T7 construct: purchased ThermoFisher (SelectScreen, Z'-LYTE)
T7 sequence (P80192 whole entry): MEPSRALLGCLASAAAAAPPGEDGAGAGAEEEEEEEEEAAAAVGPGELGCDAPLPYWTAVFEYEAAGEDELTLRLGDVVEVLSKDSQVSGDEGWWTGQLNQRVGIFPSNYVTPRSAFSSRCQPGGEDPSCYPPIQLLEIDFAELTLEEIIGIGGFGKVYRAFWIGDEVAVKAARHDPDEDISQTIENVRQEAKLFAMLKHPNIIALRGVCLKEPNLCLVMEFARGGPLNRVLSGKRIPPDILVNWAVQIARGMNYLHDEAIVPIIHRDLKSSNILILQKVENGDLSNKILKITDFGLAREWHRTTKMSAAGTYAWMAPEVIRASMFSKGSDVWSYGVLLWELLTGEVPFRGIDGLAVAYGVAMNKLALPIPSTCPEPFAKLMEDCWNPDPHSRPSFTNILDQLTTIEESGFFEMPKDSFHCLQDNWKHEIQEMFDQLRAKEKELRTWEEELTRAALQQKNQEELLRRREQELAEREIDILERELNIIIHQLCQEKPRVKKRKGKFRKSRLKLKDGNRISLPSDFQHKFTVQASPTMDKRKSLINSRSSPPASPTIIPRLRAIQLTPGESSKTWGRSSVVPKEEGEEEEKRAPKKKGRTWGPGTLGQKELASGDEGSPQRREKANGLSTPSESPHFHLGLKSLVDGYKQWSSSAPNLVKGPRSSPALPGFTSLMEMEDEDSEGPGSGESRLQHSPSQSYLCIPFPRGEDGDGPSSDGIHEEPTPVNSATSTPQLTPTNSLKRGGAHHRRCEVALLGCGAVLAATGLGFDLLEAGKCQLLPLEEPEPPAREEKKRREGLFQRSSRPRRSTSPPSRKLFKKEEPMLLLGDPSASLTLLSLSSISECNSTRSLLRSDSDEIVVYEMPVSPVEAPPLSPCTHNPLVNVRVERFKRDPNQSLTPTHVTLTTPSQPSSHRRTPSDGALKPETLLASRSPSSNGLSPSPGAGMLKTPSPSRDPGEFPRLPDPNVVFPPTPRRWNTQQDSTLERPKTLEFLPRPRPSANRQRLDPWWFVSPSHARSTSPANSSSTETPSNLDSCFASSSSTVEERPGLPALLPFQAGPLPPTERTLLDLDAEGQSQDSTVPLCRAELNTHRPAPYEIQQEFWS
Method: as §1

[8] = molecular target: T8, AURKC (Aurora C) (Homo sapiens, UniProt Q9UQB9)
T8 construct: purchased ThermoFisher (SelectScreen, Z'-LYTE)
T8 sequence (Q9UQB9 1-309): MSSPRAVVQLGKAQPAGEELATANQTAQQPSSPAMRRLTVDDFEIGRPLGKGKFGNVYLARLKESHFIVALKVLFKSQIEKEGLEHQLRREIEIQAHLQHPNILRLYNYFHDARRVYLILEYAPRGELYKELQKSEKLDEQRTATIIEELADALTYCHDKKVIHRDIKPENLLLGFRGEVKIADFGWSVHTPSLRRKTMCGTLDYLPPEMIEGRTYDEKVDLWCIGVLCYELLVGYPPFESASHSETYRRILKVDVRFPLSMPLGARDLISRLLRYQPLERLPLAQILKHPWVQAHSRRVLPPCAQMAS
Method: as §1

[9] = molecular target: T9, CSNK1E (CK1 epsilon) (Homo sapiens, UniProt P49674)
T9 construct: purchased ThermoFisher (SelectScreen, Z'-LYTE)
T9 sequence (P49674 whole entry): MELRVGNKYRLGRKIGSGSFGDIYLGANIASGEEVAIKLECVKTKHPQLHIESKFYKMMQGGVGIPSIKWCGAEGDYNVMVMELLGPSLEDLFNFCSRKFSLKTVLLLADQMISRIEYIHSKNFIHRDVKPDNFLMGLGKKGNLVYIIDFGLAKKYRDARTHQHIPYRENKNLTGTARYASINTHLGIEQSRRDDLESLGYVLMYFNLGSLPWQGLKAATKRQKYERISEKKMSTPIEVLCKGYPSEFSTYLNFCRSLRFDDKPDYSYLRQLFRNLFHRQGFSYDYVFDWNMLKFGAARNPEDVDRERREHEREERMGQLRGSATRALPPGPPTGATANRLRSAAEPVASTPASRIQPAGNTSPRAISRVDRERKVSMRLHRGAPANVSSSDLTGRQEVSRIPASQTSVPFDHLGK
Method: as §1

Compound	inhibition at 10 µM [1] [%]	inhibition at 10 µM [2] [%]	inhibition at 10 µM [3] [%]	inhibition at 10 µM [4] [%]	inhibition at 10 µM [5] [%]	inhibition at 10 µM [6] [%]	inhibition at 10 µM [7] [%]	inhibition at 10 µM [8] [%]	inhibition at 10 µM [9] [%]	TAOK2 (TAO1) % Inhibition ([1]; 10 µM compound, ATP Km app) [%]	CDK2/cyclin A % Inhibition ([2]; 10 µM compound, ATP Km app) [%]	MAP2K1 (MEK1) % Inhibition [3] [%]	MELK % Inhibition ([4]; 10 µM compound, ATP Km app) [%]	PTK2 (FAK) % Inhibition ([5]; 10 µM compound, ATP Km app) [%]	FLT3 % Inhibition ([6]; 10 µM compound, ATP Km app) [%]	MAP3K9 (MLK1) % Inhibition ([7]; 10 µM compound, ATP Km app) [%]	AURKC (Aurora C) % Inhibition ([8]; 10 µM compound, ATP Km app) [%]	CSNK1E (CK1 epsilon) % Inhibition ([9]; 10 µM compound, ATP Km app) [%]
Cc1ncc(-c2nc(Nc3ccc(C(=O)NCCN4CCCCC4)cc3)ncc2F)n1C(C)C [Compound 3]	97	101	97	100	94	101	92	89	81	–	–	–	–	–	–	–	–	–
Cc1cc(Nc2nc(N)nn2C(=O)NC(C)C)ccc1Cl [Compound 5]	21	56	8.53	4.73	10	55	69	54	2.61	–	–	–	–	–	–	–	–	–
XMD8-92 [Compound 2, reference compound]	–	–	–	–	–	–	–	–	–	39	20	17	80	47	90	8.53	34	4
